# Assay results: publication PMC6465675, “Design, Synthesis, Antiviral Evaluation, and SAR Studies of New 1-(Phenylsulfonyl)-1H-Pyrazol−4-yl-Methylaniline Derivatives” (Frontiers in Chemistry, 2019)
# Experiments:
# [1] = test system: DENV-2
# [2] = in vitro; conditions: Mesocricetus auratus (hamster)
# [3] = test system: DENV-2; assay: microbe, parasite or virus in culture; conditions: Dengue virus, DENV2, BHK, read-out: DENV-2 EC50
# [4] = in vitro; conditions: human
# [5] = in vitro; conditions: Cercopithecus aethiops (monkey), Vero76 CC50
# [6] = in vitro; conditions: Bos taurus (cattle)
# [7] = test system: YFV
# [8] = test system: YFV; assay: microbe, parasite or virus in culture; conditions: Yellow fever virus, BHK, read-out: YFV EC50
# [9] = test system: RSV; assay: microbe, parasite or virus in culture; conditions: human respiratory syncytial virus, Vero 76, read-out: RSV EC50
# [10] = test system: RSV
# [11] = test system: BVDV; assay: microbe, parasite or virus in culture; conditions: Bovine viral diarrhea virus isolates and strains, MDBK, read-out: BVDV EC50
# [12] = test system: BVDV
Structure (SMILES),SI CC50/EC50 (DENV-2) [1],CC50 [2] [µM],EC50 [3] [µM],CC50 [4] [µM],CC50 [5] [µM],melting point [°C],CC50 [6] [µM],SI CC50/EC50 (YFV) [7],EC50 [8] [µM],EC50 [9] [µM],SI CC50/EC50 (RSV) [10],EC50 [11] [µM],SI CC50/EC50 (BVDV) [12]
Cc1ccc(-c2nn(-c3ccccc3)cc2CNc2ccccc2)cc1 [1a],>3.3,> 100,30 ± 4,,,,,,,,,,
Brc1ccc(-c2nn(-c3ccccc3)cc2CNc2ccccc2)cc1 [1b],>4.5,> 100,22 ± 6,,,,,,,,,,
Brc1ccc(NCc2cn(-c3ccccc3)nc2-c2ccccc2)cc1 [1c],,> 100,,,,,,,,,,,
Clc1ccc(-c2nn(-c3ccccc3)cc2CNc2ccc(Br)cc2)cc1 [1d],>9.1,> 100,11 ± 0.4,,,,,,,,,,
Clc1ccc(NCc2cn(-c3ccccc3)nc2-c2ccccc2)cc1 [1h],>7.7,> 100,13 ± 5,,,,,,,,,,
Cc1ccc(-c2nn(-c3ccccc3)cc2CNc2ccc(Cl)cc2)cc1 [1k],>8.3,> 100,12.1 ± 3,,,,,,,,,,
Clc1ccc(NCc2cn(-c3ccccc3)nc2-c2ccc(Br)cc2)cc1 [1l],>7.8,> 100,12.9 ± 2.3,,,,,,,,,,
Cc1ccc(NCc2cn(-c3ccccc3)nc2-c2ccccc2)cc1 [1m],>8.9,> 100,11.2 ± 3.6,,,,,,,,,,
"O=S(=O)(c1ccccc1)n1cc(CNc2ccccc2)c(-c2ccccc2)n1 [7a, N-[(3-Phenyl-1-(phenysulfonyl)-1H-pyrazol-4-yl)methyl]aniline]",,> 100,,> 100,> 100,139,> 100,,,,,,
"Cc1ccc(NCc2cn(S(=O)(=O)c3ccccc3)nc2-c2ccccc2)cc1 [7d, 4-Methyl-N-[(3-phenyl-1-(phenylsulfonyl)-1H-pyrazol-4-yl)methyl]aniline]",,> 100,,> 100,≥ 100,199,> 100,,,,,,
"O=S(=O)(c1ccccc1)n1cc(CNc2ccccc2)c(-c2ccc(Cl)cc2)n1 [7i, N-[(3-(4-Chlorophenyl)-1-(phenylsulfonyl)-1H-pyrazol-4-yl)methyl]aniline]",,> 100,,> 100,> 100,117 to 118,> 100,>13.9,7.2 ± 0.9,11.8 ± 2.5,>8.5,,
"O=S(=O)(c1ccccc1)n1cc(CNc2ccc(Br)cc2)c(-c2ccc(Cl)cc2)n1 [7k, 4-Bromo-N-[(3-(4-chlorophenyl)-1-(phenylsulfonyl)-1H-pyrazol-4-yl)methyl]aniline]",,> 100,,> 100,> 100,142 to 143,> 100,>17.9,5.6 ± 0.6,13.8 ± 0.4,>7.2,,
"Cc1ccc(NCc2cn(S(=O)(=O)c3ccccc3)nc2-c2ccc(Cl)cc2)cc1 [7l, 4-Methyl-N-[(3-(4-chlorophenyl)-1-(phenylsulfonyl)-1H-pyrazol-4-yl)methyl]anyline]",,> 100,,> 100,> 100,100 to 101,> 100,>15.2,6.6 ± 0.6,24 ± 1,>4.2,,
"Cc1ccc(-c2nn(S(=O)(=O)c3ccccc3)cc2CNc2ccccc2)cc1 [7m, N-[(1-(Phenylsulfonyl)-3-(p-tolyl)-1H-pyrazol-4-yl)methyl]aniline]",,> 100,,> 100,> 100,128 to 129,> 100,>8.7,11.5 ± 1,12.5 ± 2.1,>8.0,,
"Cc1ccc(-c2nn(S(=O)(=O)c3ccccc3)cc2CNc2ccc(Cl)cc2)cc1 [7n, 4-Chloro-N-[(1-(phenylsulfonyl)-3-(p-tolyl)-1H-pyrazol-4-yl)methyl]aniline]",,> 100,,> 100,> 100,115,> 100,>19.6,5.1 ± 0.6,13 ± 2.8,>7.7,,
"Cc1ccc(-c2nn(S(=O)(=O)c3ccccc3)cc2CNc2ccc(Br)cc2)cc1 [7o, 4-Bromo-N-[(1-(phenylsulfonyl)-3-(p-tolyl)-1H-pyrazol-4-yl)methyl]aniline]",,> 100,,> 100,> 100,110,> 100,>27.0,3.7 ± 1.3,13.5 ± 0.5,>7.4,,
"Cc1ccc(NCc2cn(S(=O)(=O)c3ccccc3)nc2-c2ccc(C)cc2)cc1 [7p, 4-Methyl-N-[(1-(phenysulfonyl)-3-(p-tolyl)-1H-pyrazol-4-yl)methyl]aniline]",,> 100,,> 100,> 100,123 to 124,> 100,>27.8,3.6 ± 0.5,12 ± 2,>8.3,,
COc1ccc(S(=O)(=O)n2cc(CNc3ccccc3)c(-c3ccc(Br)cc3)n2)cc1 [8a],,> 100,,> 100,> 100,131 to 134,> 100,,,,,5.6 ± 0.8,
"COc1ccc(S(=O)(=O)n2cc(CNc3ccc(Cl)cc3)c(-c3ccc(Br)cc3)n2)cc1 [8b, 4-Chloro-N-[(3-(4-bromophenyl)-1-((4-methoxphenyl)sulfonyl)-1H-pyrazol-4-yl)methyl]aniline]",,> 100,,> 100,> 100,153 to 154,> 100,>4.6,21.6 ± 0.8,,,20 ± 1.4,>5.0
"COc1ccc(S(=O)(=O)n2cc(CNc3ccc(Br)cc3)c(-c3ccc(Br)cc3)n2)cc1 [8c, 4-Bromo-N-[(3-(4-bromophenyl)-1-((4-methoxphenyl)sulfonyl)-1H-pyrazol-4-yl)methyl]aniline]",,> 100,,> 100,> 100,162 to 164,> 100,,> 100,,,23 ± 3.5,>4.4
"COc1ccc(S(=O)(=O)n2cc(CNc3ccc(C)cc3)c(-c3ccc(Br)cc3)n2)cc1 [8d, 4-Methyl-N-[(3-(4-bromophenyl)-1-((4-methoxphenyl)sulfonyl)-1H-pyrazol-4-yl)methyl]aniline]",,> 100,,> 100,100,164 to 166,> 100,>5.5,18.3 ± 1.1,,,,
COc1ccc(S(=O)(=O)n2cc(CNc3ccccc3)c(-c3ccc(Cl)cc3)n2)cc1 [8e],,> 100,,> 100,> 100,143 to 145,> 100,,,,,,
"COc1ccc(S(=O)(=O)n2cc(CNc3ccc(Cl)cc3)c(-c3ccc(Cl)cc3)n2)cc1 [8f, 4-Chloro-N-[(3-(4-chlorophenyl)-1-((4-methoxyphenyl)sulfonyl)-1H-pyrazol-4-yl)methyl]aniline]",,> 100,,> 100,> 100,158 to 159,> 100,>6.25,16 ± 0.7,,,7.9 ± 0.8,>12.7
"COc1ccc(S(=O)(=O)n2cc(CNc3ccc(C)cc3)c(-c3ccc(Cl)cc3)n2)cc1 [8h, 4-Methyl-N-[(3-(4-chlorophenyl)-1-((4-methoxyphenyl)sulfonyl)-1H-pyrazol-4-yl)methyl]aniline]",,> 100,,> 100,> 100,169 to 171,> 100,,,,,,
"COc1ccc(S(=O)(=O)n2cc(CNc3ccccc3)c(-c3ccc(C)cc3)n2)cc1 [8i, N-[(1-((4-Methoxyphenyl)sulfonyl)-3-(p-tolyl)-1H-pyrazol-4-yl)methyl]aniline]",,> 100,,> 100,> 100,154 to 155,> 100,,,,,,
COc1ccc(S(=O)(=O)n2cc(CNc3ccc(Cl)cc3)c(-c3ccc(C)cc3)n2)cc1 [8j],,> 100,,> 100,> 100,157 to 158,> 100,,,,,,
COc1ccc(S(=O)(=O)n2cc(CNc3ccc(Br)cc3)c(-c3ccc(C)cc3)n2)cc1 [8k],,> 100,,> 100,> 100,151 to 153,> 100,,,,,19.5 ± 1.4,>5.1
"COc1ccc(S(=O)(=O)n2cc(CNc3ccc(C)cc3)c(-c3ccc(C)cc3)n2)cc1 [8l, 4-Methyl-N-[(1-((4-methoxyphenyl)sulfonyl)-3-(p-tolyl)-1H-pyrazol-4-yl)methyl]aniline]",,> 100,,> 100,> 100,145 to 146,> 100,,,,,,
"O=C1Nc2ccc(Cl)cc2[C@@](C#CC2CC2)(C(F)(F)F)O1 [EFV, Efavirenz, reference compound]",,,,40 ± 2.5,,,,,,,,,
